{"source": "patent US20260199213A1", "about": "“PEPTIDE HAVING ACTIVITY OF IMPROVING STATE OF SKIN, AND USE THEREOF” (CAREGEN CO., LTD., priority 2022, published 2026)", "format_in_all_cases": "cell-based", "key": {"fibronectin": {"test_system": "fibronectin", "experiment": "Fibronectin expression by RT-PCR in NIH3T3 cells", "description": "In this example, the aim was to confirm the effect of the peptide according to an example on improving endogenous skin aging, including improvement of wrinkles and enhancement of elasticity, etc., by evaluating the expression levels of collagen type 1 (Col1a1), fibronectin, elastin, and hyaluronic acid, which are known components of the dermis.\nSpecifically, NIH3T3 cells were seeded in a 6-well plate at a density of 3×10^5 cells/well and cultured for 24 hours. Next, the cells were washed once with serum-free DMEM media, and 10 μM, 50 μM or 1000 μM of a peptide consisting of an amino acid sequence of SEQ ID NO: 1 was dispensed into 1 mL of the serum-free media, and cultured in a CO2 incubator at 37° C. for 24 hours. Next, the culture was washed twice with PBS, and RNA was isolated from the culture using easy blue (iNtRON, Cat. No.: 17061, Korea). Next, using an RT kit (Enzynomics, Cat. NO.: RT200, Korea), the isolated RNA was reverse transcribed to synthesize the respective cDNA. Next, using the synthesized 1 ug cDNA, primers for Colla1, fibronectin, or elastin, and a PCR kit (Enzynomics, Cat. No.: P581T, Korea), polymerase chain reaction (PCR) was performed. Meanwhile, in this example, an untreated group was used as a control group, and a group to which […] was added was used as a positive control group, the nucleotide sequences of the primers used in this example are shown in Table 2 below.\nIn this example, the aim was to more specifically compare the effects of peptides according to an embodiment on improving intrinsic skin aging. To this end, a peptide consisting of an amino acid sequence of SEQ ID NO: 2, 3, or 4 having a sequence similar to a peptide according to an embodiment was set as a comparison group, and the expression levels of fibronectin and elastin were evaluated and compared in the same manner as in Example 2-1. […]"}, "SIRT-1": {"test_system": "SIRT-1", "experiment": "SIRT-1 expression reduced by ultraviolet rays in HaCaT cells (RT-PCR)", "conditions": "15 mJ/cm^2 UV, 10 μM, 50 μM or 1000 μM peptide, 8 hours", "description": "In this example, the aim was to confirm the effect of the peptide according to an embodiment on the recovery of skin barrier factors in damaged skin cells by evaluating changes in the levels of skin barrier factors in skin cells reduced by ultraviolet irradiation.\nSpecifically, HaCaT cells were seeded in a 6-well plate at a density of 5×10^5 cells/well and cultured for 24 hours. Next, the cells were washed once with serum-free DMEM media, and 10 μM, 50 μM or 1000 μM of the peptide consisting of the amino acid sequence of SEQ ID NO: 1 was dispensed into 1 mL of the serum-free media, and cultured in a CO2 incubator at 37° C. for 1 hour. Next, the above culture was transferred to an e-tube, mixed with 1 ml of PBS, and dispensed into a well plate. Next, using a UV irradiator (VILBER LOURMAT, Cat No.: 3102-BSU, France), 15 mJ/cm^2 ultraviolet rays were irradiated to the HaCaT cells. Next, the PBS in the well plate was removed, 900 μL of the culture medium in which the peptides were dispensed was added, and the plate was cultured in a CO2 incubator at 37° C. for 8 hours. Next, the culture was washed twice with PBS, and RNA was isolated from the culture using easy blue (iNtRON, Cat. No.: 17061, Korea). Next, using an RT kit (Enzynomics, Cat. NO.: RT200, Korea), the isolated RNA was reverse transcribed to synthesize the respective cDNA. […]"}, "MMP-1": {"test_system": "MMP-1", "experiment": "MMP-1 expression increased by ultraviolet rays in NIH3T3 cells (western blot)", "conditions": "6 J/cm^2 UV, 10 μM, 50 μM or 1000 μM peptide, 24 hours, FIG. 14", "source_text": "It has been reported that MMP-1 (matrix metalloproteinase-1) promotes the decomposition of collagen and the reduction of elastin in the dermis layer, thereby creating wrinkles and causing a decrease in elasticity in the skin. Accordingly, in this example, the aim was to confirm the effect of the peptide according to an embodiment on improving extrinsic skin aging, including improving wrinkles and increasing elasticity, etc., by evaluating the change in the expression level of MMP-1 increased by ultraviolet irradiation.\nSpecifically, NIH3T3 cells or HaCaT cells were seeded in a 6-well plate at a density of 5×10^5 cells/well and cultured for 24 hours. Next, the cells were washed once with serum-free DMEM media, and 10 μM, 50 μM or 1000 μM of the peptide consisting of the amino acid sequence of SEQ ID NO: 1 was dispensed into 1 mL of the serum-free media, and cultured in a CO2 incubator at 37° C. for 1 hour. Next, the above culture was transferred to an e-tube, mixed with 1 ml of PBS, and dispensed into a well plate. Next, using a UV irradiator (VILBER LOURMAT, Cat No.: 3102-BSU, France), 6 J/cm^2 ultraviolet rays were irradiated to NIH3T3 cells, and 20 mJ/cm^2 ultraviolet rays were irradiated to HaCaT cells. […] Next, MMP-1 was detected using […]. […]"}}}
{"substance": "GPRGDP [SEQ ID NO: 1]", "values": [{"measurement": "expression of fibronectin", "setting": "fibronectin; 10 μM, 50 μM or 1000 μM peptide, 24 hours, PCR, vs untreated group", "result": "increased"}, {"measurement": "expression of fibronectin (Example 2-2)", "setting": "fibronectin; comparison experiment, FIG. 5 and FIG. 6", "result": "increased"}, {"measurement": "fibronectin expression effect compared to the comparison group", "setting": "fibronectin; vs peptides of SEQ ID NO: 2, 3, or 4 (50 μM, 100 μM)", "result": "superior"}, {"measurement": "expression of SIRT-1 reduced by ultraviolet irradiation", "setting": "SIRT-1", "result": "increased or restored"}, {"measurement": "expression of MMP-1 increased by ultraviolet irradiation", "setting": "MMP-1", "result": "reduced or restored"}]}
